pIC50: −log10 of the molar value.
Molecular target: Endothelial lipase (EL) (Homo sapiens (Human), UniProt Q9Y5X9)
Test: Endothelial lipase (EL) enzymatic assay with fluorescent substrate A10070 in DMPG vesicles
Format: biochemical
Settings: not given
Summary of the method: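 EL from conditioned medium of HT-1080 cells engineered to overexpress endogenous EL; HL partially purified from conditioned medium of HL-overexpressing COS cells. Enzyme preincubated with compound 30 min at 37° C in 50 mM HEPES pH 8.0, 50 mM NaCl, 1 mM CaCl2; DMPG vesicles carrying FRET substrate (0.11 mole fraction) then added.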

Endothelial lipase (EL), sequence (Q9Y5X9 21-500): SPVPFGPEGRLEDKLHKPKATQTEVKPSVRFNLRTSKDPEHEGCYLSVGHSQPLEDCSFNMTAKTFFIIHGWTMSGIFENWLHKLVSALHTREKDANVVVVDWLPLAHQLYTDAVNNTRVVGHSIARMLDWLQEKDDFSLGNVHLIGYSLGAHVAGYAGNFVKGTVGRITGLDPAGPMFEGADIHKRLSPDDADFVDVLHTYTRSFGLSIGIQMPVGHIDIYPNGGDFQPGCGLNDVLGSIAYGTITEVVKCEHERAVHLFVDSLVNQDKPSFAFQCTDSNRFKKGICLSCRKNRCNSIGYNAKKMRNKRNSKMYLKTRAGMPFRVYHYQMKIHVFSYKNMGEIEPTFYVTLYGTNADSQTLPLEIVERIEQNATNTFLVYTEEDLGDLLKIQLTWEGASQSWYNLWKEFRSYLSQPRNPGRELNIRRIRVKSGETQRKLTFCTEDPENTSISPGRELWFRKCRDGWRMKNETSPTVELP

Compound | pIC50
CC(=O)Nc1ccc(-c2cc3nc(C(C(=O)NCC(=O)NC4CC4)S(C)(=O)=O)sc3cc2F)cc1 (stereo not shown) [Example 113, N-[(cyclopropyl-carbamoyl)methyl]-2-[5-(4-acetamidophenyl)-6-fluoro-1,3-benzothiazol-2-yl]-2-methanesulfonyl-acetamide] | 8.05
CC(C)S(=O)(=O)C(C(=O)NCC(=O)NC1CC1)c1nc2cc(C(F)(F)F)c(Br)cc2s1 (stereo not shown) [Example 179, 2-[6-bromo-5-(trifluoromethyl)-1,3-benzothiazol-2-yl]-N-[(cyclopropyl-carbamoyl)methyl]-2-(propane-2-sulfonyl) acetamide] | 7.09
CC(C)S(=O)(=O)C(C(=O)NCC(=O)NC1CC1)c1nc2cc(-c3ccc(F)nc3)ccc2s1 (stereo not shown) [Example 16, N-[(cyclopropyl-carbamoyl)methyl]-2-[5-(6-fluoropyridin-3-yl)-1,3-benzothiazol-2-yl]-2-(propane-2-sulfonyl) acetamide] | 7.41
O=C(CNC(=O)C(c1nc2ccc(-c3cncnc3)cc2s1)S(=O)(=O)c1ccccc1)NC1CC1 (stereo not shown) [Example 432, 2-(benzenesulfonyl)-N-[(cyclopropyl-carbamoyl)methyl]-2-[6-(pyrimidin-5-yl)-1,3-benzothiazol-2-yl]acetamide] | 7.21
COCCOC(=O)Nc1ccc(-c2cc3sc(C(C(=O)NCC(=O)NC4CC4)S(=O)(=O)CCOC)nc3cc2F)cn1 (stereo not shown) [Example 37, 2-methoxyethyl N-{5-[2-({[(cyclopropyl-carbamoyl)methyl]carbamoyl}(2-methoxyethane-sulfonyl)methyl)-5-fluoro-1,3-benzothiazol-6-yl]pyridin-2-yl} carbamate] | 8.30
COCCS(=O)(=O)C(C(=O)NCC(=O)NC1CC1)c1nc2ccc(-c3cccnc3Cl)cc2s1 (stereo not shown) [Example 297, 2-[6-(2-chloropyridin-3-yl)-1,3-benzothiazol-2-yl]-N-2-(2-methoxyethane-sulfonyl)acetamide] | 7.07
O=C(CNC(=O)C(c1nc2ccc(-c3cccnc3F)cc2s1)S(=O)(=O)Cc1ccc(F)cc1)NC1CC1 (stereo not shown) [Example 229, N-[(cyclopropyl-carbamoyl)methyl]-2-[(4-fluorophenyl)methanesulfonyl]-2-[6-(2-fluoropyridin-3-yl)-1,3-benzothiazol-2-yl]acetamide] | 6.82
CS(=O)(=O)C(C(=O)NCC(=O)NC1CC1)c1nc2cc(F)c(-c3ccc(NC(=O)OCC4CC4)cc3)cc2s1 (stereo not shown) [Example 527, cyclopropylmethyl N-{4-[2-({[(cyclopropyl-carbamoyl)methyl]carbamoyl}) (methanesulfonyl)methyl)-5-fluoro-1,3-benzothiazol-6-yl]phenyl} carbamate] | 8.05
COC(=O)Nc1ccc(-c2cc3sc(C(C(=O)NCC(=O)NC4CC4)S(C)(=O)=O)nc3cc2F)cc1F (stereo not shown) [Example 118, methyl N-{4-[2-({[(cyclopropyl-carbamoyl)methyl]carbamoyl} (methanesulfonyl)methyl)-5-fluoro-1,3-benzothiazol-6-yl]-2-fluorophenyl} carbamate] | 7.96
Cc1ncc(-c2cc(F)c3nc(C(C(=O)NCC(=O)NC4CC4)S(=O)(=O)c4ccc(F)cc4)sc3c2)cn1 (stereo not shown) [Example 471, N-[(cyclopropyl-carbamoyl)methyl]-2-[4-fluoro-6-(2-methylpyrimidin-5-yl)-1,3-benzothiazol-2-yl]-2-(4-fluorobenzene-sulfonyl)acetamide] | 7.64
Cc1ccc(-c2cc3sc(C(C(=O)NCC(=O)NC4CC4)S(=O)(=O)C(C)C)nc3cc2F)cn1 (stereo not shown) [Example 246, N-[(cyclopropyl-carbamoyl)methyl]-2-[5-fluoro-6-(6-methylpyridin-3-yl)-1,3-benzothiazol-2-yl]-2-(propane-2-sulfonyl)acetamide] | 7.92
COCCS(=O)(=O)C(C(=O)NCC(=O)NC1CC1)c1nc2ccc(-c3ccnn3C)cc2s1 (stereo not shown) [Example 313, N-[(cyclopropyl-carbamoyl)methyl]-2-(2-methoxyethane-sulfonyl)-2-[6-(1-methyl-1H-pyrazol-5-yl)-1,3-benzothiazol-2-yl]acetamide] | 6.50
COCCS(=O)(=O)C(C(=O)NCC(=O)NC1CC1)c1nc2cc(-c3ccc(-c4ccn[nH]4)cc3)c(F)cc2s1 (stereo not shown) [Example 130, N-[(cyclopropyl-carbamoyl)methyl]-2-{6-fluoro-5-[4-(1H-pyrazol-5-yl)phenyl]-1,3-benzothiazol-2-yl}-2-(2-methoxyethane-sulfonyl) acetamide] | 7.74
COCCS(=O)(=O)C(C(=O)NCC(=O)NC1CC1)c1nc2ccc(-c3ccc(N(C)C(=O)OC)cc3)cc2s1 (stereo not shown) [Example 25, methyl N-{4-[2-({[(cyclopropyl-carbamoyl)methyl]carbamoyl}(2-methoxyethane-sulfonyl)methyl)-1,3-benzothiazol-6-yl]phenyl}-N-methylcarbamate] | 8.15
COCCS(=O)(=O)C(C(=O)NCC(=O)NCCOC(C)C)c1nc2cc(-c3ccc4c(c3)CNC4=O)c(F)cc2s1 (stereo not shown) [Example 354, 2-[6-fluoro-5-(1-oxo-2,3-dihydro-1H-isoindol-5-yl)-1,3-benzothiazol-2-yl]-2-(2-methoxyethane-sulfonyl)-N-({[2-(propan-2-yloxy)ethyl]carbamoyl}methyl)acetamide] | 7.62

Next, values leading:

pIC50 | Compound
8.30 | CC(C)S(=O)(=O)C(C(=O)NCC(=O)NC1CC1)c1nc2cc(F)c(-c3ccc4cnn(C)c4c3)cc2s1 (stereo not shown) [Example 237, N-[(cyclopropyl-carbamoyl)methyl]-2-[5-fluoro-6-(1-methyl-1H-indazol-6-yl)-1,3-benzothiazol-2-yl]-2-(propane-2-sulfonyl) acetamide]
8.30 | CC1(O)CN(C(=O)c2ccc(-c3cc4sc(C(C(=O)NCC(=O)NC5CC5)S(=O)(=O)CCC(F)(F)F)nc4cc3F)cc2)C1 (stereo not shown) [Example 564, N-[(cyclopropyl-carbamoyl)methyl]-2-{5-fluoro-6-[4-(3-hydroxy-3-methylazetidine-1-carbonyl)phenyl]-1,3-benzothiazol-2-yl}-2-[3,3,3-trifluoropropane-sulfonyl)acetamide]
8.40 | COCCS(=O)(=O)C(C(=O)NCC(=O)NC1CC1)c1nc2cc(C)c(-c3ccc(F)nc3)cc2s1 (stereo not shown) [Example 185, N-[(cyclopropyl-carbamoyl)methyl]-2-[6-(6-fluoropyridin-3-yl)-5-methyl-1,3-benzothiazol-2-yl]-2-(2-methoxyethane-sulfonyl) acetamide]
8.40 | CC(C)c1ccc(-c2cc3nc(C(C(=O)NCC(=O)NC4CC4)S(=O)(=O)C(C)C)sc3cc2F)cn1 (stereo not shown) [Example 265, N-[(cyclopropyl-carbamoyl)methyl]-2-{6-fluoro-5-[6-(propan-2-yl)pyridin-3-yl]-1,3-benzothiazol-2-yl}-2-(propane-2-sulfonyl)acetamide]
8.40 | COCCS(=O)(=O)C(C(=O)NCC(=O)NC1CC1)c1nc2cc(F)c(-c3cccc(NC(=O)OCc4ccccc4)c3)cc2s1 (stereo not shown) [Example 549, benzyl N-{3-[2-({[(cyclopropyl-carbamoyl)methyl]carbamoyl}(2-methoxyethane-sulfonyl)methyl)-5-fluoro-1,3-benzothiazol-6-yl]phenyl} carbamate]
8.52 | COCCNC(=O)c1ccc(-c2ccc3nc(C(C(=O)NCC(=O)NC4CC4)S(=O)(=O)c4ccccc4)sc3c2)cc1 (stereo not shown) [Example 431, 4-{2-[(benzenesulfonyl) ({[(cyclopropyl-carbamoyl)methyl]carbamoyl})methyl]-1,3-benzothiazol-6-yl}-N-(2-methoxyethyl) benzamide]
8.52 | N#Cc1cccc(COC(=O)Nc2ccc(-c3cc4sc(C(C(=O)NCC(=O)NC5CC5)S(=O)(=O)C5CC5)nc4cc3F)cc2)c1 (stereo not shown) [Example 521, (3-cyanophenyl) methyl N-(4-{2-[(cyclopropane-sulfonyl) ({[(cyclopropyl-carbamoyl)methyl]carbamoyl}methyl]-5-fluoro-1,3-benzothiazol-6-yl}phenyl) carbamate]
8.52 | CS(=O)(=O)C(C(=O)NCC(=O)NC1CC1)c1nc2c(F)c(-c3ccc(NC(=O)OCc4ccccc4)cc3)ccc2s1 (stereo not shown) [Example 127, benzyl N-{4-[2-({[(cyclopropyl-carbamoyl)methyl]carbamoyl} (methanesulfonyl)methyl)-4-fluoro-1,3-benzothiazol-5-yl]phenyl} carbamate]
8.70 | COC(=O)Nc1ccc(-c2ccc3nc(C(C(=O)NCC(=O)NC4CC4)S(C)(=O)=O)sc3c2)cc1 (stereo not shown) [Example 95, methyl N-{4-[2-({[(cyclopropyl-carbamoyl)methyl]carbamoyl} (methanesulfonyl)methyl)-1,3-benzothiazol-6-yl]phenyl}carbamate]
8.70 | COC(=O)Nc1ccc(-c2cc(Cl)c3nc(C(C(=O)NCC(=O)NC4CC4)S(C)(=O)=O)sc3c2)cc1 (stereo not shown) [Example 125, methyl N-{4-[4-chloro-2-({[(cyclopropyl-carbamoyl)methyl]carbamoyl} (methanesulfonyl)methyl)-1,3-benzothiazol-6-yl]phenyl} carbamate]
9.00 | COCCS(=O)(=O)C(C(=O)NCC(=O)NC1CC1)c1nc2cc(F)c(-c3ccc(NC(=O)OCC(F)(F)F)cc3)cc2s1 (stereo not shown) [Example 526, 2,2,2-trifluoroethyl N-{4-[2-({[(cyclopropyl-carbamoyl)methyl]carbamoyl}(2-methoxyethane-sulfonyl)methyl)-5-fluoro-1,3-benzothiazol-6-yl]phenyl} carbamate]
9.00 | O=C(CNC(=O)C(c1nc2cc(F)c(-c3ccc(NC(=O)OCc4ccccc4)cc3)cc2s1)S(=O)(=O)CC1CCCCC1)NC1CC1 (stereo not shown) [Example 54, benzyl N-(4-{2-[cyclohexyl-methanesulfonyl ({[(cyclopropyl-carbamoyl)methyl]carbamoyl})methyl]-5-fluoro-1,3-benzothiazol-6-yl}phenyl) carbamate]

Same assay, conditions: EL from conditioned media of HT-1080 cells; 30 min preincubation at 37° C.

pIC50 | Compound
6.96 | COC(=O)Nc1ccccc1-c1cc2sc(C(C(=O)NCC(=O)NC3CC3)S(C)(=O)=O)nc2cc1F (stereo not shown) [Example 532, Methyl N-{2-[2({[(cyclopropylcarbamoyl)methyl]carbamoyl}(methanesulfonyl)methyl)-5-fluoro-1,3-benzothiazol-6-yl]phenyl}carbamate]

From patent US10173991B2, “Sulfone amide linked benzothiazole inhibitors of endothelial lipase” (BRISTOL-MYERS SQUIBB COMPANY, priority 2014, dated 2019)
